Like-named read-outs stand apart in the source and are kept apart here.
Biological target: T1, CETP (Homo sapiens, UniProt P11597)
T1 construct: from tissue; host or cells: blood / plasma of human subjects dosed orally with Compound I
T1 sequence (P11597 18-493): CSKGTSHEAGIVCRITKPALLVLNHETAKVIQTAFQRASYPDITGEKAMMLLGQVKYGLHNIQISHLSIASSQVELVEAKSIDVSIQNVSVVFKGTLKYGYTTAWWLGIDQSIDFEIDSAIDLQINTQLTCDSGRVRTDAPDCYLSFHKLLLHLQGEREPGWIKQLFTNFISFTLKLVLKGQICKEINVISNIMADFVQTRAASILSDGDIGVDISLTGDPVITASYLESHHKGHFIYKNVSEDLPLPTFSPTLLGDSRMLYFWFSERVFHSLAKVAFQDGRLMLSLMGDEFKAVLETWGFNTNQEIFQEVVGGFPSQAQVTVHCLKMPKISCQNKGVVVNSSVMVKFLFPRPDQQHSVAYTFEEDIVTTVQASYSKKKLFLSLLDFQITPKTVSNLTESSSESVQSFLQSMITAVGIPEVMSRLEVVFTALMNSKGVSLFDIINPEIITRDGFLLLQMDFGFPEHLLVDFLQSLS
Experiment: CETP activity change from pre-dose after single oral doses, Caucasian males (Example 5)
Assay type: in vivo
Settings: for change in vivo at 100 mg: 100 mg with food; for change in vivo at 100 mg / change in vivo at 300 mg / change in vivo at 600 mg / change in vivo at 900 mg / change in vivo at 1200 mg / change in vivo at 1500 mg / change in vivo at 1800 mg: read-out: Percent change from pre-dose in CETP activity (mean); for change in vivo at 300 mg: 300 mg with food; for Decrease in CETP activity relative to pre-dose: 6 hours after administration; for change in vivo at 600 mg: 600 mg with food; for change in vivo at 900 mg: 900 mg with food; for change in vivo at 1200 mg: 1200 mg with food; for change in vivo at 1500 mg: 1500 mg with food; for change in vivo at 1800 mg: 1800 mg with food
Protocol: Administration, dosing, and sampling schedules were substantially similar to those described in Example 1. The tablets were prepared as described in Example 1.
The procedure for determining CETP activity was substantially similar to the procedures described in Tollefson et al., Methods Enzymol., 129, 797-816 (1986), and Kato et al., J. Biol. Chem., 264, 4082-4087 (1989).
CETP activity and changes from baseline (pre-dose) were measured, and the resulting data is summarized in Table 6 as percentage change from baseline.

CCC(CC)CC1(C(=O)Nc2ccccc2SC(=O)C(C)C)CCCCC1 [Compound I, S-[2-([[1-(2-ethylbutyl)cyclohexyl]carbonyl]amino)phenyl]2-methylpropanethioate]
change in vivo at 100 mg (1 h): -2% | change in vivo at 100 mg (2 h): -2% | change in vivo at 100 mg (4 h): -5% | change in vivo at 100 mg (6 h): -7% | change in vivo at 100 mg (8 h): -6% | change in vivo at 100 mg (24 h): -1% | change in vivo at 100 mg (post-study): -5% | change in vivo at 300 mg (1 h): 0% | change in vivo at 300 mg (2 h): -7% | change in vivo at 300 mg (4 h): -12% | change in vivo at 300 mg (6 h): -13% | change in vivo at 300 mg (8 h): -13% | change in vivo at 300 mg (24 h): -6% | change in vivo at 300 mg (post-study): 2% | Decrease in CETP activity relative to pre-dose (300 mg): 13% | change in vivo at 600 mg (1 h): -3% | change in vivo at 600 mg (2 h): -12% | change in vivo at 600 mg (4 h): -29% | change in vivo at 600 mg (6 h): -36% | change in vivo at 600 mg (8 h): -36% | change in vivo at 600 mg (24 h): -21% | change in vivo at 600 mg (post-study): -6% | Decrease in CETP activity relative to pre-dose (600 mg): 36% | change in vivo at 900 mg (1 h): -3% | change in vivo at 900 mg (2 h): -23% | change in vivo at 900 mg (4 h): -48% | change in vivo at 900 mg (6 h): -55% | change in vivo at 900 mg (8 h): -53% | change in vivo at 900 mg (24 h): -28% | change in vivo at 900 mg (post-study): -5% | Decrease in CETP activity relative to pre-dose (900 mg): 55% | change in vivo at 1200 mg (1 h): -3% | change in vivo at 1200 mg (2 h): -17% | change in vivo at 1200 mg (4 h): -58% | change in vivo at 1200 mg (6 h): -71% | change in vivo at 1200 mg (8 h): -70% | change in vivo at 1200 mg (24 h): -43% | change in vivo at 1200 mg (post-study): -4% | change in vivo at 1500 mg (1 h): -3% | change in vivo at 1500 mg (2 h): -32% | change in vivo at 1500 mg (4 h): -72% | change in vivo at 1500 mg (6 h): -83% | change in vivo at 1500 mg (8 h): -81% | change in vivo at 1500 mg (24 h): -48% | change in vivo at 1500 mg (post-study): 0% | change in vivo at 1800 mg (1 h): -3% | change in vivo at 1800 mg (2 h): -23% | change in vivo at 1800 mg (4 h): -67% | change in vivo at 1800 mg (6 h): -74% | change in vivo at 1800 mg (8 h): -71% | change in vivo at 1800 mg (24 h): -42% | change in vivo at 1800 mg (post-study): -5%

— patent publication US20140243414A1, “PHARMACEUTICAL COMPOSITIONS OF CETP INHIBITORS” (Japan Tobacco Inc., priority 2003, published 2014)
